Data published in patent publication US6737383B1, “Herbicidal oxadiazolidines” (priority 1999, dated 2004).

Columns and labels:
winter barley = test: Test E winter barley; format: in vivo, Hordeum vulgare; conditions: Preemergence
bamyardgrass = test: Test B flood test barnyardgrass; format: in vivo, Echinochloa crus-galli
Outline: (§1)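 Flood test on plants grown to the 2-leaf stage; treated plants kept in greenhouse twelve to sixteen days, then visually rated against controls on a 0 (no effect) to 10 (complete control) scale.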

rice = test: Test B flood test rice; format: in vivo, Oryza sativa; conditions: for Plant response rating, Rice: Rate 250 g/ha, Postemergence (flood test), scale 0 to 10, 0 is no effect, 10 is complete control
Outline: as §1

winter wheat [1] = test: Test E winter wheat; format: in vivo, Triticum aestivum; conditions: Preemergence
sugar beet = test: Test B pre/postemergence sugar beet; format: in vivo, Beta vulgaris; conditions: for Sugarbeets plant response rating (0 to 10 scale): 0 is no effect; for Plant response rating, Sugarbeets: Rate 250 g/ha
Outline: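 Test chemicals in a non-phytotoxic solvent mixture with surfactant were sprayed preemergence onto planted seeds and postemergence onto plants 2 to 18 cm tall (1- to 4-leaf stage). After twelve to sixteen days in a greenhouse, injury was visually rated against untreated controls from 0 (no effect) to 10 (complete control).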

Italian ryegrass = test: Test E Italian ryegrass; format: in vivo, Lolium multiflorum; conditions: Preemergence
winter wheat [2] = test: Test E winter wheat; format: in vivo, Triticum aestivum; conditions: Postemergence
Outline: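 Each compound, carried in a non-phytotoxic solvent blend including surfactant, was applied (postemergence: over the top of young plants at 1- to 4-leaf stage). Plants stayed in the greenhouse about 21 to 28 days before visual comparison with untreated controls.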

blackgrass = test: Test E blackgrass; format: in vivo, Alopecurus myosuroides; conditions: Preemergence
green foxtail [3] = test: Test E green foxtail; format: in vivo, Setaria viridis; conditions: Preemergence
duck salad = test: Test B flood test duck salad; format: in vivo, Heteranthera limosa
Outline: as §1

Green foxtail [4] = test: Test D green foxtail; format: in vivo
Outline: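 Greenhouse pots, seeds in sandy loam; compounds formulated in non-phytotoxic solvent with surfactant; preemergence treatments went on the soil surface within one day of planting. Injury rated visually 14 to 21 days after application on a 0 (none) to 100 (complete control) scale.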

smallflower flatsedge = test: Test B flood test smallflower flatsedge; format: in vivo, Cyperus difformis; conditions: for Plant response rating, S. Flatsedge: Rate 250 g/ha, Postemergence (flood test), scale 0 to 10, 0 is no effect, 10 is complete control
Outline: as §1

wild oat = test: Test E wild oat; format: in vivo, Avena fatua; conditions: Preemergence
[5] = Rate 62 g/ha, 0 to 100 scale, 0 no effect, 100 complete control
[6] = Rate 125 g/ha, 0 to 100 scale (0 no effect, 100 complete control)
[7] = Rate 500 g/ha, 0 to 100 scale where 0 is no effect and 100 is complete control
[8] = Postemergence, Rate 62 g/ha, scale 0 to 10, 0 is no effect, 10 is complete control
[9] = Rate 125 g/ha, Postemergence section (flood test species), scale 0 to 10, 0 no effect, 10 complete control
[10] = Rate 500 g/ha, listed under Postemergence (flood test species), scale 0 to 10, 0 no effect, 10 complete control
[11] = flood test, listed under Postemergence, Rate 250 g/ha, scale 0 to 10, 0 no effect, 10 complete control
[12] = Postemergence (flood test species), Rate 125 g/ha, scale of 0 to 10 where 0 is no effect and 10 is complete control
[13] = Rate 62 g/ha, Postemergence section, flood test species, scale of 0 to 10 where 0 is no effect and 10 is complete control
[14] = Postemergence, Rate 125 g/ha, scale of 0 to 10 where 0 is no effect and 10 is complete control
[15] = Preemergence, Rate 62 g/ha, scale 0 to 10 (0 no effect, 10 complete control)
[16] = Preemergence, Rate 125 g/ha, 10 is complete control
[17] = Preemergence, scale of 0 to 10 where 0 is no effect and 10 is complete control
[18] = Preemergence, Rate 500 g/ha, scale 0 to 10 (0 no effect, 10 complete control)
[19] = Rate 62 g/ha, Postemergence, scale of 0 to 10 where 0 is no effect and 10 is complete control
[20] = Postemergence, scale 0 to 10, 0 is no effect, 10 is complete control
[21] = Rate 500 g/ha, Postemergence, scale 0 to 10, 0 no effect, 10 complete control
[22] = Rate 250 g/ha, 0 to 100 scale (0 no effect, 100 complete control)
[23] = Rate 500 g/ha, 0 to 100 scale, 0 no effect, 100 complete control
[24] = Rate 125 g/ha, Preemergence; 0 to 100 scale, 0 no injury, 100 complete control
[25] = Rate 1000 g/ha, 0 to 100 scale where 0 is no effect and 100 is complete control
[26] = Rate 64 g/ha, Preemergence; 0 to 100 scale, 0 no injury, 100 complete control

Compound: CC(C)N(C(=O)n1oc(=O)n(C(C)C)c1=O)c1ccc(Cl)cc1 [Compound 114]
- Plant response rating, Barley (winter) (winter barley; [5]): 0
- Plant response rating, Barley (winter) (winter barley; [6]): 5
- Plant response rating, Barley (winter) (winter barley; Rate 250 g/ha, 0 to 100 scale): 10
- Plant response rating, Barley (winter) (winter barley; [7]): 40
- Barnyardgrass plant response rating (bamyardgrass; [8]): 0
- Barnyardgrass plant response rating (bamyardgrass; [9]): 0
- Barnyardgrass plant response rating (bamyardgrass; [10]): 0
- Barnyardgrass plant response rating (bamyardgrass; [11]): 0
- Rice plant response rating (rice; [12]): 0
- Rice plant response rating (rice; [13]): 0
- Plant response rating, Rice (rice): 0
- Rice plant response rating (rice; [10]): 0
- Plant response rating, Wheat (winter) (winter wheat [1]; [5]): 0
- Plant response rating, Wheat (winter) (winter wheat [1]; [6]): 10
- Plant response rating, Wheat (winter) (winter wheat [1]; Rate 250 g/ha, 0 to 100 scale): 0
- Plant response rating, Wheat (winter) (winter wheat [1]; [7]): 0
- Sugarbeets plant response rating (sugar beet; [14]): 3
- Sugarbeets plant response rating (sugar beet; [15]): 4
- Sugarbeets plant response rating (0 to 10 scale) (sugar beet; [16]): 6
- Plant response rating, Sugarbeets (sugar beet; [17]): 7
- Sugarbeets plant response rating (sugar beet; [18]): 7
- Sugarbeets plant response rating (sugar beet; [19]): 3
- Plant response rating, Sugarbeets (sugar beet; [20]): 4
- Sugarbeets plant response rating (sugar beet; [21]): 5
- Plant response rating, I. Ryegrass (Italian ryegrass; [5]): 20
- Plant response rating, I. Ryegrass (Italian ryegrass; [6]): 30
- Plant response rating, I. Ryegrass (Italian ryegrass; Rate 250 g/ha, 0 to 100 scale): 100
- Plant response rating, I. Ryegrass (Italian ryegrass; [7]): 95
- Plant response rating, Wheat (winter) (winter wheat [2]; Rate 62 g/ha, 0 to 100 scale): 0
- Plant response rating, Wheat (winter) (winter wheat [2]; Rate 125 g/ha, 0 to 100 scale): 10
- Plant response rating, Wheat (winter) (winter wheat [2]; [22]): 60
- Plant response rating, Wheat (winter) (winter wheat [2]; [23]): 20
- Plant response rating, Blackgrass (blackgrass; [5]): 30
- Plant response rating, Blackgrass (blackgrass; [6]): 50
- Plant response rating, Blackgrass (blackgrass; Rate 250 g/ha, 0 to 100 scale): 50
- Plant response rating, Blackgrass (blackgrass; [7]): 100
- Plant response rating, Green foxtail (green foxtail [3]; [5]): 45
- Plant response rating, Green foxtail (green foxtail [3]; [6]): 100
- Plant response rating, Green foxtail (green foxtail [3]; Rate 250 g/ha, 0 to 100 scale): 100
- Plant response rating, Green foxtail (green foxtail [3]; [7]): 85
- Ducksalad plant response rating (duck salad; [12]): 0
- Ducksalad plant response rating (duck salad; [13]): 0
- Ducksalad plant response rating (duck salad; [10]): 0
- Ducksalad plant response rating (duck salad; [11]): 0
- Green foxtail plant response rating (Green foxtail [4]; [24]): 100
- Plant response rating, Green foxtail (Green foxtail [4]; [24]): 100
- S. Flatsedge plant response rating (smallflower flatsedge; [12]): 0
- S. Flatsedge plant response rating (smallflower flatsedge; [13]): 0
- Plant response rating, S. Flatsedge (smallflower flatsedge): 0
- S. Flatsedge plant response rating (smallflower flatsedge; [10]): 0
- Plant response rating, Wild oat (wild oat; [5]): 20
- Plant response rating, Wild oat (wild oat; [6]): 40
- Plant response rating, Wild oat (wild oat; [7]): 70

Compound: CC(C)N(C(=O)n1oc(=O)n(C2CCCCC2)c1=O)c1ccc(F)cc1F [Compound 115]
- Plant response rating, Barley (winter) (winter barley; Rate 250 g/ha, 0 to 100 scale): 10
- Plant response rating, Barley (winter) (winter barley; [7]): 20
- Plant response rating, Barley (winter) (winter barley; [25]): 30
- Barnyardgrass plant response rating (bamyardgrass; [8]): 0
- Barnyardgrass plant response rating (bamyardgrass; [9]): 0
- Barnyardgrass plant response rating (bamyardgrass; [10]): 0
- Barnyardgrass plant response rating (bamyardgrass; [11]): 0
- Rice plant response rating (rice; [12]): 0
- Rice plant response rating (rice; [13]): 0
- Plant response rating, Rice (rice): 0
- Rice plant response rating (rice; [10]): 0
- Plant response rating, Wheat (winter) (winter wheat [1]; Rate 250 g/ha, 0 to 100 scale): 5
- Plant response rating, Wheat (winter) (winter wheat [1]; [7]): 10
- Plant response rating, Wheat (winter) (winter wheat [1]; [25]): 20
- Sugarbeets plant response rating (sugar beet; [14]): 3
- Sugarbeets plant response rating (sugar beet; [15]): 0
- Sugarbeets plant response rating (0 to 10 scale) (sugar beet; [16]): 0
- Plant response rating, Sugarbeets (sugar beet; [17]): 0
- Sugarbeets plant response rating (sugar beet; [18]): 5
- Sugarbeets plant response rating (sugar beet; [19]): 2
- Plant response rating, Sugarbeets (sugar beet; [20]): 3
- Sugarbeets plant response rating (sugar beet; [21]): 3
- Plant response rating, I. Ryegrass (Italian ryegrass; Rate 250 g/ha, 0 to 100 scale): 45
- Plant response rating, I. Ryegrass (Italian ryegrass; [7]): 50
- Plant response rating, I. Ryegrass (Italian ryegrass; [25]): 80
- Plant response rating, Wheat (winter) (winter wheat [2]; [22]): 10
- Plant response rating, Wheat (winter) (winter wheat [2]; Rate 1000 g/ha, 0 to 100 scale, 0 is no effect and 100 is complete control): 40
- Plant response rating, Wheat (winter) (winter wheat [2]; [23]): 20
- Plant response rating, Blackgrass (blackgrass; Rate 250 g/ha, 0 to 100 scale): 30
- Plant response rating, Blackgrass (blackgrass; [7]): 50
- Plant response rating, Blackgrass (blackgrass; [25]): 60
- Plant response rating, Green foxtail (green foxtail [3]; Rate 250 g/ha, 0 to 100 scale): 65
- Plant response rating, Green foxtail (green foxtail [3]; [7]): 70
- Plant response rating, Green foxtail (green foxtail [3]; [25]): 90
- Ducksalad plant response rating (duck salad; [12]): 0
- Ducksalad plant response rating (duck salad; [13]): 0
- Ducksalad plant response rating (duck salad; [10]): 0
- Ducksalad plant response rating (duck salad; [11]): 0
- Plant response rating, Green foxtail (Green foxtail [4]; Preemergence; Rate 16 g/ha; 0 to 100 scale, 0 no injury, 100 complete control): 0
- Plant response rating, Green foxtail (Green foxtail [4]; Preemergence; Rate 32 g/ha; 0 to 100 scale, 0 no injury, 100 complete control): 70
- Plant response rating, Green foxtail (Green foxtail [4]; Rate 16 g/ha; Preemergence; 0 to 100 scale, 0 no injury, 100 complete control): 0
- Plant response rating, Green foxtail (Green foxtail [4]; Rate 32 g/ha; Preemergence; 0 to 100 scale, 0 no injury, 100 complete control): 75
- Green foxtail plant response rating (Green foxtail [4]; [26]): 85
- Plant response rating, Green foxtail (Green foxtail [4]; [26]): 85
- Green foxtail plant response rating (Green foxtail [4]; [24]): 100
- Plant response rating, Green foxtail (Green foxtail [4]; [24]): 100
- Plant response rating, Green foxtail (Green foxtail [4]; Rate 250 g/ha; Preemergence; 0 to 100 scale): 100
- Plant response rating, Green foxtail (Green foxtail [4]; Rate 500 g/ha, Preemergence; 0 to 100 scale): 100
- S. Flatsedge plant response rating (smallflower flatsedge; [12]): 0
- S. Flatsedge plant response rating (smallflower flatsedge; [13]): 0
- Plant response rating, S. Flatsedge (smallflower flatsedge): 0
- S. Flatsedge plant response rating (smallflower flatsedge; [10]): 0
- Plant response rating, Wild oat (wild oat; [7]): 50
- Plant response rating, Wild oat (wild oat; [25]): 60
